Experimental data published in US20220175761A1, “BI-LIGAND DRUG CONJUGATE AND USE THEREOF” (COHERENT BIOPHARMA (SUZHOU), LIMITED, priority 2019, published 2022).
Numbered stars: 1 amine (or outer) side, 2 acyl side, 3 side chain; on linkers, the order of the positions; unused ones are H or OH. Bridge positions count the residues as written; N and C are the ends. Square brackets hold non-standard residues; d marks the D form. Peptide text beside a SMILES is read from it. I, II: the chains in the order shown. * marks the point of attachment. ξ: configuration not given here. EuK = O=C(O)CC[C@H](NC(=O)N[C@@H](CCCCN*)C(=O)O)C(=O)O; Dolaproine = CO[C@@H]([C@@H]1CCCN1)[C@@H](C)C(=O)O; Dil = CC[C@H](C)[C@H](NC)[C@@H](CC(=O)O)OC; X3 = O=C1CC([*:2])C(=O)N1CCCCCC(=O)[*:1]; PABC = O=C(OCc1ccc(N[*:1])cc1)[*:2]; X1 = C[C@@H](N*)[C@@H](O)c1ccccc1; X2 = O=C(Cc1ccc(CN[*:1])cc1)[*:2]; NMeV = CN[C@H](C(=O)O)C(C)C; ξCit = NC(=O)NCCCC(N)C(=O)O; CO = O=C([*:1])[*:2]; ξC = NC(CS)C(=O)O

Tests used:
[1] = test system: lung cancer PDX model LU2505; assay: Effectiveness in lung cancer LU2505 model (PDX model); format: in vivo, BALB/c nude mice
Description: The active substance of test sample CBP-1018 is CB-20BK, which is obtained by mixing CB-20BK with auxiliary materials and then lyophilizing same.

[2] = test system: lung cancer PDX model LU1206; assay: Effectiveness in lung cancer LU1206 model (PDX model); format: in vivo, BALB/c nude mice
Procedure: BALB/c nude mice bore tumors subcutaneously and, when the tumor volume reached about 150 mm^3, were grouped into: low-dose, medium-dose and high-dose test sample groups, a small molecule MMAE control group, a targeting polypeptide 20BK-SM09 control group, and a blank control group (a total of 6 groups, and 8 mice per group); the mice were administered on day 1, day 8 and day 15 after the grouping; and the observation was continued for 14 days after the last administration.

[3] = test system: LNCaP (human prostate cancer cells); assay: Inhibition of cell line proliferation, CCK8; format: cell-based; details: LNCaP
Description: (§1) Since different cells have different sensitivity to a cell proliferation inhibitory toxicity of the payload in a ligand conjugate, the quantitative analysis may be interfered occasionally. A series of cell lines with known expression levels of receptors of different ligands were selected and tested for the response to inhibitory effects of the cell proliferation of a ligand conjugate and a single payload. The IC50 ratio of a single payload to that of a ligand conjugate in same cell line were taken to remove such interference.
Experimental operations: LNCaP and 22RV1 cells were prepared in advance, counted, and plated in 96-well cell culture plates at a cell density of 4×10^4 cells/ml and 2.0×10^4 cells/ml, respectively (100 μl/well); negative control and blank control wells were set on each plate. After adherent cell culture overnight, the diluted samples to be tested were added at 50 μl/well. The plates were placed in an incubator at 37° C., 5% CO2 and cultured for 68-72 hours. To each well, 15 μl (10% of the liquid volume in a well) of a color developing solution from CCK8 was added; and the plates were incubated at 37° C. for 45-70 minutes and each plate was read at 450 nm on a microplate reader. The data was edited using SoftMax Pro and a 4-P fitting curve was plotted. […]

[4] = biological target: T1, FOLR1 (Homo sapiens, UniProt P15328); assay: BIAcore T200 binding affinity to FOLR1 (CM5 chip conjugated with FOLR1); details: BIAcore T200
T1 construct: purchased R&D System 5646-FR
T1 sequence (P15328 25-233 limits assumed): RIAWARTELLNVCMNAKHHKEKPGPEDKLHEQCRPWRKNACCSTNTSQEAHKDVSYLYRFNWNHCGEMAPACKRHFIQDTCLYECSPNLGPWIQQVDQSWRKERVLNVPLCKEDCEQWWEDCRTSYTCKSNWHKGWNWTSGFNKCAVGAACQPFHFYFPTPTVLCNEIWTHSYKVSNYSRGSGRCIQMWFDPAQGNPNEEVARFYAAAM
Description: Buffer: HBS-EP+ buffer 10× (GE, Cat #: BR100669), diluted 10 folds with deionized water before use.
In the experiment, CM5 chip was conjugated with ligand FOLR1 (R&D System, Cat #: 5646-FR).

[5] = test system: 22RV1 (human prostate cancer cells); assay: Inhibition of cell line proliferation, CCK8; format: cell-based
Description: as §1
(§2) Experimental operations: LNCaP and 22RV1 cells were prepared in advance, counted, and plated in 96-well cell culture plates at a cell density of 4×10^4 cells/ml and 2.0×10^4 cells/ml, respectively (100 μl/well); negative control and blank control wells were set on each plate. After adherent cell culture overnight, the diluted samples to be tested were added at 50 μl/well. The plates were placed in an incubator at 37° C., 5% CO2 and cultured for 68-72 hours. To each well, 15 μl (10% of the liquid volume in a well) of a color developing solution from CCK8 was added; and the plates were incubated at 37° C. for 45-70 minutes and each plate was read at 450 nm on a microplate reader. The data was edited using SoftMax Pro and a 4-P fitting curve was plotted.

[6] = test system: CFPAC-1 (human pancreatic cancer cells); assay: Inhibition of cell line proliferation, CCK8; format: cell-based; details: CFPAC-1, 68-72 hours, CCK8
Procedure: as §2, with “PANC-1” for “LNCaP”, “CFPAC-1” for “22RV1”, “cells/ml” for “cells/ml and 2.0×10^4 cells/ml, respectively”
(§3) Experimental operations: LNCaP, SK-BR-3, NCI-H226, CFPAC-1 and PANC-1 cells were prepared in advance and counted; with a culture medium (IMDM+10% FBS+1× L-Glutamine+1×P/S), the cells LNCaP, SK-BR-3 and CFPAC-1 were diluted to 4×10^4 cells/ml, NCI-H226 was diluted to 2.0×10^4 cells/ml and PANC-1 was diluted to 3.0×10^4 cells/ml; the diluted cell solution was plated in 96-well plates at 100 μl/well; and negative control and blank control wells were set on each plate. After adherent cell culture overnight, the diluted samples to be tested were added at 50 μl/well. The plates were placed in an incubator at 37° C., 5% CO2 and cultured for 68-72 hours. To each well, 15 μl (10% of the liquid volume in a well) of a color developing solution from CCK8 was added; and the plates were incubated at 37° C. for 45-70 minutes and each plate was read at 450 nm on a microplate reader. The data was edited using SoftMax Pro and a 4-P fitting curve was plotted.
(§4) Experimental Operations: LNCaP, SK-BR-3, MDA-MB-468 and CFPAC-1 cells were prepared in advance and counted; with a culture medium (IMDM+10% FBS+1× L-Glutamine+1×P/S), the cells LNCaP, SK-BR-3, MDA-MB-468 and CFPAC-1 were diluted to 4×10^4 cells/ml; the diluted cell solution was plated in 96-well plates at 100 µl/well; and negative control and blank control wells were set on each plate. After adherent cell culture overnight, the diluted samples to be tested were added at 50 μl/well. The plates were placed in an incubator at 37° C., 5% CO2 and cultured for 68-72 hours. To each well, 15 μl (10% of the liquid volume in a well) of a color developing solution from CCK8 was added; and the plates were incubated at 37° C. for 45-70 minutes and each plate was read at 450 nm on a microplate reader. The data was edited using SoftMax Pro and a 4-P fitting curve was plotted.
as §4, with “Operations: LNCaP, MDA-MB-468, CFPAC-1 and PANC-1” for “Operations: LNCaP, SK-BR-3, MDA-MB-468 and CFPAC-1”, “CFPAC-1 and PANC-1 cells were” for “MDA-MB-468 and CFPAC-1 cells were”, “cells LNCaP, MDA-MB-468 and” for “cells LNCaP, SK-BR-3, MDA-MB-468 and”, “to 4×10^4 cells/ml, and PANC-1 was diluted to 3.0×10^4 cells/ml; the” for “to 4×10^4 cells/ml; the”, “at 100 μl/well; and negative” for “at 100 µl/well; and negative”
Experimental operations: NCI-H226, CFPAC-1 and MDA-MB-468 cells were prepared in advance and counted; MDA-MB-468 and CFPAC-1 cells were plated at a density of 2×10^4 cells/ml (100 μl/well) and NCI-H226 cells were plated at a density of 1×10^4 cells/ml (100 μl/well) in 96-well plates; and negative control and blank control wells were set on each plate. After adherent cell culture overnight, the diluted samples to be tested were added at 50 μl/well. The plates were placed in an incubator at 37° C., 5% CO2 and cultured for 68-72 hours. […]

[7] = test system: MDA-MB-468 (human breast cancer cells); assay: Inhibition of cell line proliferation, CCK8; format: cell-based; details: MDA-MB-468, 68-72 hours, CCK8
Procedure: as §4
as §4, with “Operations: LNCaP, MDA-MB-468, CFPAC-1 and PANC-1” for “Operations: LNCaP, SK-BR-3, MDA-MB-468 and CFPAC-1”, “CFPAC-1 and PANC-1 cells were” for “MDA-MB-468 and CFPAC-1 cells were”, “cells LNCaP, MDA-MB-468 and” for “cells LNCaP, SK-BR-3, MDA-MB-468 and”, “to 4×10^4 cells/ml, and PANC-1 was diluted to 3.0×10^4 cells/ml; the” for “to 4×10^4 cells/ml; the”, “at 100 μl/well; and negative” for “at 100 µl/well; and negative”
(§5) Experimental operations: NCI-H226, CFPAC-1 and MDA-MB-468 cells were prepared in advance and counted; MDA-MB-468 and CFPAC-1 cells were plated at a density of 2×10^4 cells/ml (100 μl/well) and NCI-H226 cells were plated at a density of 1×10^4 cells/ml (100 μl/well) in 96-well plates; and negative control and blank control wells were set on each plate. After adherent cell culture overnight, the diluted samples to be tested were added at 50 μl/well. The plates were placed in an incubator at 37° C., 5% CO2 and cultured for 68-72 hours. To each well, 15 μl (10% of the liquid volume in a well) of a color developing solution from CCK8 was added; and the plates were incubated at 37° C. for 45-70 minutes and each plate was read at 450 nm on a microplate reader. The data was edited using SoftMax Pro and a 4-P fitting curve was plotted.

[8] = test system: NCI-H226 (human lung cancer cells); assay: Inhibition of cell line proliferation, CCK8; format: cell-based; details: NCI-H226, 68-72 hours, CCK8
Procedure: as §3, §5

[9] = 10 mg/kg on day 1, 8, 15, euthanized on day 29

Structure (SMILES): NCCCC[C@H](CC(=O)[C@H](CC(=O)O)NC(=O)[C@H](CC(=O)O)NC(=O)Cc1ccc(CNC(=O)NCCCC[C@H](NC(=O)N[C@@H](CCC(=O)O)C(=O)O)C(=O)O)cc1)C(=O)N[C@@H](CS)C(=O)N[C@@H](CCCCNC(=O)CC[C@H](NC(=O)c1ccc(NCc2cnc3[nH]c(N)nc(=O)c3n2)cc1)C(=O)O)C(N)=O [20BK-SM09]
- tumor growth inhibition effect (in words) ([1]; 10 mg/kg): no obvious tumor growth inhibition effect
- Tumor volume ([1]; 10 mg/kg on day 1, 8, 15, D22): 2024.75 mm^3
- Tumor weight ([1]; 10 mg/kg on day 1, 8, 15, D22): 1811.5 (D22) mg
- tumor growth inhibition effect (in words) ([2]; 10 mg/kg): no obvious tumor growth inhibition effect
- Tumor volume ([2]; 10 mg/kg on day 1, 8, 15): 1158.80 mm^3
- Tumor weight [2, 9]: 914.36 mg
- Tumor weight Inhibition ratio [2, 9]: −6.80%

Structure (SMILES): CC[C@H](C)[C@@H]([C@@H](CC(=O)N1CCC[C@H]1[C@H](OC)[C@@H](C)C(=O)N[C@H](C)[C@@H](O)c1ccccc1)OC)N(C)C(=O)[C@@H](NC(=O)[C@H](C(C)C)N(C)C(=O)OCc1ccc(NC(=O)C(CCCNC(N)=O)NC(=O)[C@@H](NC(=O)CCCCCN2C(=O)CC(SCC(NC(=O)[C@H](CCCCN)NC(=O)[C@H](CC(=O)O)NC(=O)[C@H](CC(=O)O)NC(=O)Cc3ccc(CNC(=O)NCCCC[C@H](NC(=O)N[C@@H](CCC(=O)O)C(=O)O)C(=O)O)cc3)C(N)=O)C2=O)C(C)C)cc1)C(C)C (stereo partly drawn) [CB-20AK, reference compound] (I: V[ξCit][PABC][NMeV]V[Dil][Dolaproine]-X1 / II: {EuK-CO}-[X2]DDK[ξC]-NH2; linker I:N-II:5 via X3)
- IC50 ratio (MMAE/conjugate) [3]: 0.025
- IC50 ([3]; 68-72 hours, CCK8): 102 nM
- specific binding to FOLR1 (in words) [4]: has not been detected to specifically bind to FOLR1
- IC50 ratio (MMAE/conjugate) ([5]; 22RV1): 0.006
- IC50 ([5]; 22RV1, 68-72 hours, CCK8): 1050 nM

Structure (SMILES): CC[C@@]1(O)C(=O)OCc2c1cc1n(c2=O)Cc2c-1nc1cc(F)c(C)c3c1c2[C@@H](NC(=O)CO)CC3 [Dxd0017, reference compound]
- IC50 [6]: 6.4 nM
- IC50 [7]: 6.1 nM
- IC50 [8]: 8 nM
